By melting point is commonly meant the temperature, or range, at which the solid turns liquid.

In the case of `Nc1ncnc2c1c(-c1ccc(Oc3ccccc3)cc1)cn2[C@H]1CC[C@@H](N2CCCC2)CC1` [Example 193, cis-5-(4-Phenoxyphenyl)-7-(4-pyrrolidinocyclohex-1-yl)-7H-pyrrolo[2,3-d]pyrimidin-4-ylamine], the melting point fell in the range of 101 to 104 °C.
`Nc1ncnc2c1c(-c1ccc(Oc3ccccc3)cc1)cn2C1CCOC1` (stereo not drawn) [Example 22, 5-(4-Phenoxyphenyl)-7-(3-tetrahydrofuryl)-7H-pyrrolo[2,3-d]pyrimidin-4-ylamine] showed a melting point of 196 to 196.5 °C.
In the case of `Nc1ncnc2c1c(-c1ccc(Oc3ccccc3)cc1)cn2C1COCC1O` (stereo not drawn) [Example 30, 4-[4-Amino-5-(4-phenoxyphenyl)-7H-pyrrolo-[2,3-d]pyrimidin-7-yl]tetrahydrofuran-3-ol] it was 234.5 to 235.5 °C; in that of `CN1CCN(C2CCC(n3cc(-c4ccc(Oc5ccccc5)cc4)c4c(N)ncnc43)C2)CC1.O=C(O)/C=C\C(=O)O.O=C(O)/C=C\C(=O)O.O=C(O)/C=C\C(=O)O` (stereo not drawn) (hydrate or solvate), 168 to 170 °C (dec.); in that of `Nc1ncnc2c1c(-c1ccc(Oc3ccccc3)cc1)cn2CC(=O)NCCOCCO` [Example 156, N-[-2(2-hydroxyethoxy)ethyl]-2-[4-amino-5-(4-phenoxyphenyl)-7H-pyrrolo[2,3-d]-pyrimidin-7-yl]acetamide], 145 to 147 °C.
The result for `Nc1ncnc2c1c(-c1ccc(Oc3ccccc3)cc1)cn2C1CCC(=O)CC1` [Example 175, 4-[4-Amino-5-(4-phenoxyphenyl)-7H-pyrrolo[2,3-d]pyrimidin-7-yl]cyclohexanone] reads 252 to 254 °C; that for `N#Cc1ccccc1Oc1ccc(-c2cn(C3CCOC3)c3ncnc(N)c23)cc1` (stereo not drawn) [Example 28, 2-[4-(4-Amino-7-(3-tetrahydrofuryl)-7H-pyrrolo[2,3-d]pyrimidin-5-yl)phenoxy]-benzonitrile], 201 to 203 °C.
The compound `Nc1ncnc2c1c(-c1ccc(Oc3ccc(F)cc3)cc1)cn2C1CCOC1` (stereo not drawn) [Example 35, 5-[4-(4-Fluorophenoxy)phenyl]-7-(3-tetrahydrofuryl)-7H-pyrrolo[2,3-d]pyrimidin-4-ylamine] had a melting point of 198 to 199 °C.
The result for `CN1CCN([C@H]2CCC[C@H](n3cc(-c4ccc(Oc5ccccc5)cc4)c4c(N)ncnc43)C2)CC1.Cl.Cl.Cl` (relative stereo) (hydrate or solvate) reads 304 to 306 °C (dec.).
In the case of `COCCCNc1cccc(Oc2ccc(-c3cn(C4CCOCC4)c4ncnc(N)c34)cc2)c1C#N` [Example 52, 2-[4-(4-Amino-7-(4-tetrahydropyranyl)-7H-pyrrolo[2,3-d]pyrimidin-5-yl)phenoxy)-6-(3-methoxypropylamino)benzonitrile] it was 205 to 207 °C; in that of `Cl.Cl.NCCCCCCCCn1cc(-c2ccc(Oc3ccccc3)cc2)c2c(N)ncnc21.O.O` (hydrate or solvate), 120 °C.
In the case of `Cl.Cl.Nc1ncnc2c1c(-c1ccc(Oc3ccccc3)cc1)cn2C1CNOC1` (stereo not drawn) it was 208 °C (dec.); in that of `N#Cc1ccccc1Oc1ccc(-c2cn(C3CCOCC3)c3ncnc(N)c23)cc1` [Example 42, 2-[4-(4-Amino-7-(4-tetrahydropyranyl)-7H-pyrrolo[2,3-d]pyrimidin-5-yl)phenoxy]benzonitrile], 125 °C.
In turn, `Nc1ncnc2c1c(-c1ccc(Oc3ccccc3)cc1)cn2CCN1C(=O)c2ccccc2C1=O` [Example 171, N-{2-[4-Amino-5-(4-phenoxyphenyl)-7H-pyrrolo[2,3-d]pyrimidin-7-yl]ethyl}phthalimide] yielded a melting point of 111 to 112 °C.
In the case of `Cl.Cl.Nc1ncnc2c1c(-c1ccc(Oc3ccccc3)cc1)cn2C1CCNC1` (stereo not drawn) (hydrate or solvate), the melting point was 298 °C (dec.).
In the case of `Nc1ncnc2c1c(-c1ccc(Oc3ccccc3)cc1)cn2C1CCC2(CC1)OCCO2` [Example 174, 5-(4-Phenoxyphenyl)-7-(1,4-dioxaspiro[4,5]decan-8-yl)-7H-pyrrolo[2,3-d]pyrimidin-4-ylamine], the melting point lay within 193 to 194 °C.
The result for `CCOC(=O)C(C)n1cc(-c2ccc(Oc3ccccc3)cc2)c2c(N)ncnc21` (stereo not drawn) [Example 148, Ethyl 2-[4-Amino-5-(4-phenoxyphenyl)-7H-pyrrolo[2,3-d]pyrimidin-7-yl]propionate] reads 139 to 140 °C; that for `N#Cc1c(OCCN2CCOCC2)cccc1Oc1ccc(-c2cn(C3CCOCC3)c3ncnc(N)c23)cc1` [Example 50, 2-(4-(4-Amino-7-(4-tetrahydropyranyl)-7H-pyrrolo[2,3-d]pyrimidin-5-yl)phenoxy]-6-(2-morpholinoethoxy)benzonitrile], 110 °C.
Consider `CC(C(=O)O)n1cc(-c2ccc(Oc3ccccc3)cc2)c2c(N)ncnc21` (stereo not drawn) [Example 157, 2-[4-Amino-5-(4-phenoxyphenyl)-7H-pyrrolo[2,3-d]pyrimidin-7-yl]propionic Acid], for which the melting point was 239.5 to 241 °C.
`Nc1ncnc2c1c(-c1ccc(Oc3ccccc3)cc1)cn2C1CCNC1` (stereo not drawn) [Example 205, 5-(4-Phenoxyphenyl)-7-(3-pyrrolidinyl) -7H-pyrrolo[2,3-d]pyrimidin-4-ylamine] had a melting point of 182 to 184 °C.
The result for `CN(C)[C@H]1CC[C@@H](n2cc(-c3ccc(Oc4ccccc4)cc3)c3c(N)ncnc32)CC1` [Example 196, cis-7-(4-Dimethylaminocyclohexyl)-5-(4-phenoxyphenyl)-7H-pyrrolo[2,3-d]pyrimidin-4-ylamine] reads 180 to 182 °C; that for `Nc1ncnc2c1c(-c1ccc(Oc3ccc(CN4CCOCC4)cc3)cc1)cn2C1CCOC1` (stereo not drawn) [Example 36, 5-[4-(4-Morpholinomethylphenoxy)-phenyl]-7-(3-tetrahydrofuryl)-7H-pyrrolo[2,3-d]pyrimidin-4-ylamine], 142 to 144 °C.
The result for `Cl.NCCn1cc(-c2ccc(Oc3ccccc3)cc2)c2c(N)ncnc21` reads 284 to 285 °C; that for `CC(C)(C)OC(=O)N1CCC(n2cc(-c3ccc(Oc4ccccc4)cc3)c3c(N)ncnc32)C1` (stereo not drawn) [Example 203, tert-Butyl 3-[4-Amino-5-(4-phenoxyphenyl)-7H-pyrrolo[2,3-d]pyrimidin-7-yl]-1-pyrrolidinecarboxylate], 168 to 170 °C.
`CN(C)[C@H]1CC[C@H](n2cc(-c3ccc(Oc4ccccc4)cc3)c3c(N)ncnc32)CC1` [Example 196, Trans-7-(4-Dimethylaminocyclohexyl)-5-(4-phenoxyphenyl)-7H-pyrrolo[2,3-d]pyrimidin-4-ylamine]: the melting point fell in the range of 207.5 to 210 °C.
`CC(C(=O)NCCN(C)C)n1cc(-c2ccc(Oc3ccccc3)cc2)c2c(N)ncnc21` (stereo not drawn) [Example 149, N-(2-Dimethylaminoethyl)-2-[4-amino-5-(4-phenoxyphenyl)-7H-pyrrolo[2,3-d]pyrimidin-7-yl)propionamide] came in with a melting point of 163 to 164 °C.
Regarding `Nc1ncnc2c1c(-c1ccc(Oc3ccccc3)cc1)cn2CC(=O)NCCN1CCNCC1` [Example 152, N-[2-(Piperazin-1-yl)ethyl]-2-[4-amino-5-[4-phenoxyphenyl)-7H-pyrrolo[2,3-d]-pyrimidin-7-yl]acetamide], the melting point lay within 138 to 140 °C.

The record behind these values is US6713474B2, “Pyrrolopyrimidines as therapeutic agents” (Abbott GmbH & Co. KG, priority 1998, dated 2004).
